The results in this text go back to patent US6936600B2, “Sorbitol dehrydrogenase inhibitors” (Pfizer Inc, priority 1999, dated 2005).

For orientation: melting point means the temperature, or range, at which the solid turns liquid.

Where only a bound is given, the exact number is not on record here.

In the case of `C[C@@H](O)c1nccc(N2CCC(=C(c3ccccc3)c3ccccn3)CC2)n1` [Example 181], the melting point fell in the range of 98 to 101 °C.
In the case of `C[C@@H]1CN(c2nc3cccnc3o2)C[C@H](C)N1c1ccnc([C@@H](C)O)n1` [Example 33, 1R-[4-(2R,6S-Dimethyl-4-oxazolo[5,4-b]pyridin-2-yl-piperazin-1-yl)-pyrimidin-2-yl]-ethanol], the melting point lay in the range of 204 to 207 °C.
`Cc1cc(C)nc(N2[C@H](C)CN(c3ccnc([C@@H](C)O)n3)C[C@@H]2C)n1` [Example 66, 1R-{4-[4-(4,6-Dimethyl-pyrimidin-2-yl)-3R,5S-dimethyl-piperazin-1-yl]-pyrimidin-2-yl}-ethanol] yielded a melting point of 141.5 to 142.5 °C.
On to `COc1nc(CO)nc(N2[C@H](C)CN(c3ccnc([C@@H](C)O)n3)C[C@@H]2C)n1` [Example 236, 1R-{4-[4-(4-Hydroxymethyl-6-methoxy-[1,3,5]triazin-2-yl)-3R,5S-dimethyl-piperazin-1-yl]-pyrimidin-2-yl}-ethanol], for which the melting point lay within 170 to 171 °C.
Then `C[C@@H](O)c1nccc(N2CCc3c(nc(-c4ccccc4)nc3-c3ccccc3)C2)n1` [Example 91], with 73 to 75 °C; and `CC(=O)c1nccc(N2C[C@@H](C)N(c3ccnc([C@@H](C)O)n3)[C@@H](C)C2)n1` [Example 46, 1-(4-{4-[2-(1R-Hydroxy-ethyl)-pyrimidin-4-yl]-3R,5S-dimethyl-piperazin-1-yl}-pyrimidin-2-yl)-ethanone], with 150 to 164 °C.
The figure for `C[C@@H](O)c1nccc(N2CCC(=CC(=O)c3ccccc3)CC2)n1` [Example 179] is 44 to 59 °C; for `COc1nc(C)nc(N2[C@H](C)CN(c3ccnc([C@@H](C)O)n3)C[C@@H]2C)n1` [Example 213, 1R-{4-[4-(4-Methoxy-6-methyl-[1,3,5]triazin-2-yl)-3R,5S-dimethylpiperazin-1-yl]-pyrimidin-2-yl}-ethanol] it is 161 to 162 °C.
Then `C[C@@H]1CN(c2nc3ncccc3o2)C[C@H](C)N1c1ccnc([C@@H](C)O)n1` [Example 31, 1R-[4-(2R,6S-Dimethyl-4-oxazolo-[4,5-b]pyridin-2-yl-piperazin-1-yl)-pyrimidin-2-yl]-ethanol], with 231 to 233 °C; and `C[C@@H](O)c1nccc(N2CCc3ccc(S(=O)(=O)N(C)C)cc3C2)n1` [Example 247, (R)-2-[2-(1-Hydroxy-ethyl)-pyrimidin-4-yl]-1,2,3,4-tetrahydro-isoquinoline-7-sulfonic acid dimethylamide], with 120.5 to 122 °C; and `C[C@@H](O)c1nccc(N2CCc3nc(N)ncc3C2)n1` [Example 256], with 208 to 210 °C.
The compound `Cc1nc(C)nc(N2[C@H](C)CN(c3ccnc([C@@H](C)O)n3)C[C@@H]2C)n1` [Example 242, 1R-{4-[4-(4,6-Dimethyl-[1,3,5]triazin-2-yl)-3R,5S-dimethyl-piperazin-1-yl]-pyrimidin-2-yl}-ethanol] returned a melting point of 157 to 159 °C.
Then `C[C@@H](O)c1nccc(N2CCc3c(nc(N)nc3-c3ccccc3)C2)n1` [Example 90], with 225 to 228 °C (dec.); and `C[C@@H](O)c1nccc(N2CCC(O)(c3ccccc3)CC2)n1` [Example 175, (R)-4-Phenyl-1-[2-(1-hydroxy-ethyl)-pyrimidin-4-yl]-piperidin-4-ol], with 114 °C.
Then `C[C@@H](O)c1nccc(N2CCc3nc(C(F)(F)F)ncc3C2)n1` [Example 255], with 130 to 132 °C.
With `C[C@@H]1CN(C(=O)/C=C/c2cc3ccccc3o2)C[C@H](C)N1c1ccnc([C@@H](C)O)n1` [Example 130, (E)-3-Benzofuran-2-yl-1-{4-[2-(1R-hydroxy-ethyl)-pyrimidin-4-yl]-2R,6S-dimethyl-piperazin-1-yl}-propenone], the melting point lay within 80 to 82 °C.
The figure for `C[C@@H](O)c1nccc(N2C[C@@H]3C[C@H]2CN3S(=O)(=O)c2ccc(Cl)cc2)n1` [Example 115] is 83 to 88 °C; for `C[C@@H](O)c1nccc(N2CCN(Cc3ccccn3)CC2)n1` [Example 182, (R)-1-[4-(4-Pyridin-2-ylmethyl-piperazin-1-yl)-pyrimidin-2-yl]-ethanol] it is 68 to 70 °C; for `C[C@@H]1CN(c2ncnc(-c3ccccc3)n2)C[C@H](C)N1c1ccnc([C@@H](C)O)n1` [Example 215] it is 133 to 134 °C.
The figure for `C[C@@H](O)c1nccc(N2C[C@@H]3C[C@H]2CN3S(=O)(=O)N(C)C)n1` [Example 120] is 110 to 111 °C.
Then `C[C@@H](O)c1nccc(N2CCC(=C(c3ccccc3)c3ccccc3)CC2)n1` [Example 180], with 108 to 109 °C; and `C[C@@H](O)c1nccc(N2CCc3cc(-c4ccsc4)ccc3C2)n1` (stereo in doubt) [Example 248, 1-[4-(6-Thiophen-3-yl-3,4-dihydro-1H-isoquinolin-2-yl)-pyrimidin-2-yl]-ethanol], with 125.5 to 127.5 °C.
`C[C@@H](O)c1nccc(N2CCC(=Cc3cccc(Cl)c3)CC2)n1` [Example 176, (R)-1-{4-[4-(3-Chlorobenzylidene)-piperidin-1-yl]-pyrimidin-2-yl}-ethanol] came in with a melting point of 45 to 55 °C.
The figure for `Cc1nc2c(c(Sc3ccccc3)n1)CCN(c1ccnc([C@@H](C)O)n1)C2` [Example 98] is 103 to 105 °C; for `COc1nc(OC)nc(N2[C@H](C)CN(c3ccnc([C@@H](C)O)n3)C[C@@H]2C)n1` [Example 214, 1R-{4-[4-(4,6-Dimethoxy-[1,3,5]triazin-2-yl)-3R,5S-dimethyl-piperazin-1-yl]-pyrimidin-2-yl}-ethanol] it is 187 to 188 °C.
As to `C[C@@H](O)c1nccc(N2CCn3c(nnc3-c3ccccc3)C2)n1` [Example 260], the melting point was in the range of 161 to 164 °C.
`C[C@@H]1CN(c2ncnc(N3CCOCC3)n2)C[C@H](C)N1c1ccnc([C@@H](C)O)n1` [Example 212, 1R-{4-[2R,6S-Dimethyl-4-(4-morpholino-4-yl-[1,3,5]triazin-2-yl)-piperazin-1-yl]-pyrimidin-2-yl}-ethanol] returned a melting point of 78 to 82 °C.
The figure for `C[C@@H](O)c1nccc(N2CCn3c(nnc3-c3cc4ccccc4s3)C2)n1` [Example 262] is 224 to 226 °C; for `CC(=O)c1nccc(N2C[C@@H](C)N(c3ccnc(C(C)=O)n3)[C@@H](C)C2)n1` [Example 63, 1-{4-[4-(2-Acetyl-pyrimidin-4-yl)-2R*,6S*-dimethyl-piperazin-1-yl]-pyrimidin-2-yl}-ethanone] it is > 235 °C (dec.).
The figure for `Cc1nc2c(c(-c3ccccc3)n1)CCN(c1ccnc([C@@H](C)O)n1)C2` [Example 86, (R)-1-[4-(2-Methyl-4-phenyl-5,8-dihydro-6H-pyrido[3,4-d]pyrimidin-7-yl)-pyrimidin-2-yl]ethanol] is 114 to 116 °C.
The figure for `C[C@@H](O)c1nccc(N2CCn3c(nnc3-c3nc4ccccc4s3)C2)n1` [Example 259, (R)-1-[4-(3-Benzothiazol-2-yl-5,6-dihydro-8H-[1,2,4]triazolo[4,3-a]pyrazin-7-yl)-pyrimidin-2-yl]-ethanol] is 216.5 to 218.5 °C; for `C[C@@H]1CN(c2ccnc([C@@H](C)O)n2)C[C@H](C)N1C(=O)c1cc2cnccc2o1` [Example 132, Furo[3,2-c]pyridin-2-yl-{4-[2-(1R-hydroxy-ethyl)-pyrimidin-4-yl]-2R,6S-dimethyl-piperazin-1-yl}-methanone] it is 142 to 143 °C; for `CC(=O)c1nccc(N2[C@H](C)CN(c3ccnc([C@@H](C)O)n3)C[C@@H]2C)n1` [Example 45, 1-(4-{4-[2-(1R-Hydroxy-ethyl)-pyrimidin-4-yl]-2R,6S-dimethyl-piperazin-1-yl}-pyrimidin-2-yl)-ethanone] it is 123 to 127 °C.
Compound `O=S(=O)(N1CCCCC1)N1CCN(c2ccnc(CO)n2)CC1` [Example 123] had a melting point of 141 to 142 °C.
The figure for `C[C@@H]1CN(c2ccnc([C@@H](C)O)n2)CCN1c1ccnc([C@@H](C)O)n1` [Example 39, 1R-(4-{4-[2-(1R-Hydroxy-ethyl)-pyrimidin-4-yl]-2R-methyl-piperazin-1-yl}-pyrimidin-2-yl)-ethanol] is 155 to 157 °C.
Then `C[C@@H](O)c1nccc(N2CCc3nc(-c4ccccc4)ncc3C2)n1` [Example 257], with 128 to 131 °C; and `C[C@@H](O)c1nccc(N2CCc3cnc(-c4ccccc4)nc3C2)n1` [Example 87], with 72 to 74 °C; and `C[C@@H]1CN(c2nccc(-n3cncn3)n2)C[C@H](C)N1c1ccnc([C@@H](C)O)n1` [Example 196, 1R-{4-[2R,6S-Dimethyl-4-(4-[1,2,4]triazol-1-yl-pyrimidin-2-yl)-piperazin-1-yl]-pyrimidin-2-yl}-ethanol], with 181 to 182 °C.
The figure for `C[C@@H](O)c1nccc(N2CCN(c3ccnc(CO)n3)[C@@H](C)C2)n1` [Example 37, 1R-{4-[4-(2-Hydroxymethyl-pyrimidin-4-yl)-3S-methyl-piperazin-1-yl]-pyrimidin-2-yl}-ethanol] is 178 to 181 °C; for `O=S(=O)(N1CCCC1)N1CCN(c2ccnc(CO)n2)CC1` [Example 121, {4-[4-(Pyrrolidine-1-sulfonyl)-piperazin-1-yl]-pyrimidin-2-yl}-methanol] it is 128 to 131 °C.
Compound `C[C@@H]1CN(c2ccnc([C@@H](C)O)n2)C[C@H](C)N1c1ccnc(N2CCN(C)CC2)n1` [Example 208, 1R-(4-{3R,5S-Dimethyl-4-[2-(4-methyl-piperazin-1-yl)-pyrimidin-4-yl]-piperazin-1-yl}-pyrimidin-2-yl)-ethanol] had a melting point of 181 to 182 °C.
Then `C[C@@H](O)c1nccc(N2CCn3c(nnc3-c3ccc(-c4ccccc4)cc3)C2)n1` [Example 263], with 123 to 125 °C.
`Cc1nc2c(c(N3CCc4ccccc43)n1)CCN(c1ccnc([C@@H](C)O)n1)C2` [Example 99] came in with a melting point of 128 to 131 °C.
